Assay results published in ChEMBL document CHEMBL1201862, “PubChem BioAssay data set” (2004).
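Method: 48-hour compound exposure of cells in 96-well plates, five concentrations, linear interpolation of endpoints. GI50 marks 50% less growth.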 The source made the active and inactive calls. No stated cut-off is given here; in the data, active = GI50 up to about 1.1 µM and inactive = higher.

Tests used:
Experiment in all cases: NCI anticancer screen, dose series, 48 h
SK-OV-3 = test system: SK-OV-3
HOP-92 = test system: HOP-92
786-0 = test system: 786-0
T47D = test system: T47D
HT-29 = test system: HT-29
BT-549 = test system: BT-549
MDA-MB-435 = test system: MDA-MB-435
A498 = test system: A498
HCT-15 = test system: HCT-15
MOLT-4 = test system: MOLT-4
COLO 205 = test system: COLO 205
CCRF-CEM = test system: CCRF-CEM
SN12C = test system: SN12C
SK-MEL-2 = test system: SK-MEL-2
Hs-578T = test system: Hs-578T
MCF7 = test system: MCF7
SF-295 = test system: SF-295
NCI-H226 = test system: NCI-H226
HOP-62 = test system: HOP-62
RPMI-8226 = test system: RPMI-8226

SMILES	GI50 (SK-OV-3)	GI50 (HOP-92)	GI50 (786-0)	GI50 (T47D)	GI50 (HT-29)	GI50 (BT-549)	GI50 (MDA-MB-435)	GI50 (A498)	GI50 (HCT-15) [µM]	GI50 (MOLT-4)	GI50 (COLO 205)	GI50 (CCRF-CEM)	GI50 (SN12C)	GI50 (SK-MEL-2)	GI50 (Hs-578T)	GI50 (MCF7)	GI50 (SF-295)	GI50 (NCI-H226)	GI50 (HOP-62)	GI50 (RPMI-8226)
Nc1c(Br)cc(-c2nc3ccccc3s2)cc1Br	> 100 µM (inactive)	> 100 µM (inactive)	> 100 µM (inactive)	> 100 µM (inactive)	> 100 µM (inactive)	> 100 µM (inactive)	> 100 µM (inactive)	> 100 µM (inactive)	> 100	> 100 µM (inactive)	> 100 µM (inactive)	> 100 µM (inactive)	> 100 µM (inactive)	> 100 µM (inactive)	> 100 µM (inactive)	18.9 µM (inactive)	> 100 µM (inactive)	> 100 µM (inactive)	> 100 µM (inactive)	
CC(C)(Oc1ccc(Cl)cc1)C(=O)N(C(=O)N1CCN(c2ccccc2)CC1)c1ccccc1	> 100 µM (inactive)	> 100 µM (inactive)	28.4 µM (inactive)	5.48 µM (inactive)	6.25 µM (inactive)	> 100 µM (inactive)	16.2 µM (inactive)	84.9 µM (inactive)	6.61	4.12 µM (inactive)	6.49 µM (inactive)	7.1 µM (inactive)	42.3 µM (inactive)	> 100 µM (inactive)	> 100 µM (inactive)	8.59 µM (inactive)	33.2 µM (inactive)	8.09 µM (inactive)	> 100 µM (inactive)	
CC(=O)Nc1cc2nc3n(c2cc1C)CCC3OC(C)=O (centres undefined)	> 100 µM (inactive)	> 100 µM (inactive)	> 100 µM (inactive)	> 100 µM (inactive)	> 100 µM (inactive)	> 100 µM (inactive)	> 100 µM (inactive)	> 100 µM (inactive)	> 100	> 100 µM (inactive)	> 100 µM (inactive)	> 100 µM (inactive)	> 100 µM (inactive)	> 100 µM (inactive)	> 100 µM (inactive)	> 100 µM (inactive)	> 100 µM (inactive)	> 100 µM (inactive)		> 100 µM (inactive)
CCC12CCCN3CCc4c(n(c5ccccc45)C(O)(C(=O)OC)C1)C32 (centres undefined)	> 100 µM (inactive)	> 100 µM (inactive)	> 100 µM (inactive)	> 100 µM (inactive)	> 100 µM (inactive)	> 100 µM (inactive)	> 100 µM (inactive)	> 100 µM (inactive)	> 100	> 100 µM (inactive)	> 100 µM (inactive)	> 100 µM (inactive)	> 100 µM (inactive)	> 100 µM (inactive)	> 100 µM (inactive)	> 100 µM (inactive)	> 100 µM (inactive)	> 100 µM (inactive)		> 100 µM (inactive)
COc1ccc(NC(=O)/C(=N\NC(=O)C[n+]2ccccc2)c2c(O)c3ccc(O)cc3oc2=O)c([N+](=O)[O-])c1	> 100 µM (inactive)	32.3 µM (inactive)	> 100 µM (inactive)	> 100 µM (inactive)	> 100 µM (inactive)	> 100 µM (inactive)	> 100 µM (inactive)	75.7 µM (inactive)	> 100	85.5 µM (inactive)	> 100 µM (inactive)	> 100 µM (inactive)	> 100 µM (inactive)	> 100 µM (inactive)	> 100 µM (inactive)	> 100 µM (inactive)	> 100 µM (inactive)	> 100 µM (inactive)		> 100 µM (inactive)
CCCCCCCC/C=C\CCCCCCCC(=O)OC[C@]1(CO)CCC(=O)O1	> 100 µM (inactive)	> 100 µM (inactive)	> 100 µM (inactive)	> 100 µM (inactive)	> 100 µM (inactive)	> 100 µM (inactive)	> 100 µM (inactive)	> 100 µM (inactive)	> 100	> 100 µM (inactive)	> 100 µM (inactive)	> 100 µM (inactive)	> 100 µM (inactive)	> 100 µM (inactive)	> 100 µM (inactive)	> 100 µM (inactive)	> 100 µM (inactive)	> 100 µM (inactive)	> 100 µM (inactive)	
